Data published in patent US20100041751A1, “Method to Reduce Oxidative Damage and Improve Mitochondrial Efficiency” (ACCERA, INC., priority 2005, published 2010).
Entries after “also recorded” stand apart in the source; their conditions may differ. Where two headings read alike, the source gives them in different places.

How the values were obtained:
[1] = cited from earlier work; for amount that will dissolve in water: in 1 liter of water at 20° C.
[2] = Serum beta-hydroxybutyrate (BHB) levels in aged beagle dogs fed MCTs; type: in vivo
Protocol: Reducing oxidative damage and improving mitochondrial efficiency. Two groups of aged beagle dogs were tested for the effects of feeding MCT on oxidative damage and mitochondrial efficiency. The first group was maintained on MCTs (2 g/kg/day) and the second group on placebo control over a 2-month period. Blood samples were taken over 5 time points to monitor levels of the ketone body, beta-hydroxybutyrate (BHB). After two months of treatment, the dogs were anaesthetized and brain biopsies were collected for mitochondrial analysis. The animals were then euthanized and brain tissue was harvested for further analysis of mitochondrial function and protein levels.
The eight subjects (8-11 years) were divided into two equal sized groups, matched for age and sex. The first group was administered 2 g/kg/day of MCTs, which was added to their maintenance diet, and the other received only the maintenance diet. The test substance was manually added to the dog's normal chow and introduced over three days, such that one-third of the maximum dose was administered on the first day, two-thirds on the second day and the full dose on the third day. The subjects were maintained on the test substance over a two-month period. Blood samples for BHB analysis were taken on: Baseline (Day 0), Day 4, Day 14, Day 28, Biopsy/Euthanasia (Day 56 or 57).
Biopsy procedure. Approximately 30 minutes prior to surgery, a blood sample was taken for BHB analysis and then the animals were pre-medicated with acepromazine. Animals were induced using isoflurane (inhaled) via a facemask. The animal then were intubated and maintained in a deep plane of anaesthesia using isoflurane. […]
Serum BHB levels were assessed at five different time-points: (1) prior to treatment onset (T0), (2) after 4 days of treatment (T1), (3) after 14 days of treatment (T2), (4) after 28 days of treatment (T3), and (5) on the biopsy date (T4). The levels were analyzed using a repeated-measures ANOVA with time-point (T0 vs. T1 vs. T2 vs. T3 vs. T4) as a within-subject variable and group (control vs. MCT) as a between-subject variable.

brain mitochondria = assay: Respiration assays on brain mitochondria isolated from biopsies of MCT-fed aged beagle dogs; type: in vivo; conditions: for respiratory control ratio (RCR), coupling of respiration with ATP production: state III / state IV respiration, treatment vs control
Protocol: On the day of biopsy, the treatment group was administered 2 g/kg of MCTs and the control group was administered an isocaloric solution of sucrose by an oral-gastric tube. Approximately two hours after dosing, the animals were anaesthetized and biopsies were taken from the frontal and parietal lobes. Immediately after removing the biopsy tissue, the animals were euthanized with an injectable euthanizing agent.
Using the biopsied material, brain mitochondria were isolated and the following parameters were assayed in real-time:
Mitochondrial Assays. Mitochondria were isolated using differential centrifugation and released from synaptosomes using a nitrogen cell disrupter (1000 psi for 5 minutes).
The respiration assays were conducted using standard polarography in a sealed, thermostated, stirred chamber containing a Clark-type electrode, which measures oxygen within the chamber. The system was calibrated with oxygen-saturated water, to standardize the quantification of oxygen consumption. The assays were conducted at 37° C.
Once the mitochondria were inserted into the Oxytherm, complex I driven respiration (state II respiration) was measured by adding pyruvate and malate (2.5 and 5 mM). Subsequently, 150 μM ADP was added to induce state III respiration, which measured the rate of active respiration. Oligomycin was added to inhibit ATP synthase and put the mitochondria into state IV respiration. To assess UCP activity, free fatty acids were added. FCCP then was added to completely uncouple the mitochondria by depolarizing the membrane potential, which caused maximum electron transport activity and maximum oxygen consumption. Finally, rotenone was added to inhibit complex I electron transport and succinate was added to measure maximum complex II-driven electron transport and oxygen consumption (complex II-driven respiration). The respiratory control ratio (RCR) was tabulated by dividing state III respiration rates by state IV respiration rates.
The respiration rates that were tabulated on-site were analyzed using repeated-measures ANOVAs. For each measure, brain region (frontal vs. parietal) was the within-subject variable and group (control vs. MCT) was the between-subject variable.

[3] = test system: brain tissue fractions (mitochondrial, P1, cytosolic); assay: Markers of oxidative damage in brain fractions of MCT-fed aged beagle dogs; type: in vivo; conditions: MCT vs control
Protocol: The remaining mitochondria were stored in 10% DMSO at −80° C. and assayed for UCP isoforms by western blot and quantification of oxidative damage in the mitochondrial, P1 and cytosolic fractions. Mitochondria from the biopsied tissue were frozen and analyzed for oxidative damage using markers of peroxynitrite, lipid peroxidation and 3-nitrotyrosine. Markers of Oxidative Damage. The markers of oxidative damage were analyzed using a repeated-measures ANOVA with region (frontal vs. parietal) and fraction (mitochondrial vs. P1 vs. cytosolic) as the within-subject variables and group (control vs. MCT) as the between-subject variable.

MPTP treated mice = assay: MPTP mouse model of Parkinson's disease; type: in vivo, C57BL mice
Protocol: 8- to 10-week-old male C57BL mice will be divided into four groups: control, MPTP treated plus dextrose, and MPTP treated plus MCT. In dextrose treated pups, 0.5 g/kg of dextrose will be administered by oral gavage 2 to 4 hours before MPTP treatment. In MCT treated pups, 0.5 g/kg of MCTs will be administered by oral gavage 2 to 4 hours before MPTP treatment. Each mouse will then be randomly assigned to receive four intraperitoneal injections of either MPTP (18 mg/kg of free base in saline) or saline at 2-hour intervals. Mice will subsequently be tested for motor performance on a rotarod. The rotarod will consist of four rotating rods of 3 cm diameter in separated compartments. Seven days after MPTP or saline injections the mice will be first pretrained three times (1 hour apart) using an accelerating mode. After the training sessions, the time on the rod will be recorded for successive rotational speeds, and the overall rod performance (ORP) for each mouse calculated.
Seven days after the last MPTP injection, mice will be killed and their brain tissue processed for immunohistochemical studies to examine levels of oxidative stress and effects of MPTP treatment. Cell fractions from the biopsied tissue will be frozen and analyzed for oxidative damage using markers of peroxynitrite, lipid peroxidation and 3-nitrotyrosine. […] In addition mitochondria will be isolated from each group and examined for mitochondrial efficiency.

CCCCCC(=O)O [Caproic, caproic acid]
Solubility [1]: 9.7 grams of acid per liter | amount that will dissolve in water [1]: 9.7 grams

CCCCCCCCCCCC(=O)O [Lauric]
Solubility ([1]; water at 20° C.): 0.055 grams of acid per liter

CCCCCCCC(=O)OCC(COC(=O)CCCCCCC)OC(=O)CCCCCCC [MCTs, tri-C8:0 medium chain triglycerides]
levels of serum BHB ([2]; aged beagle dogs, MCTs 2 g/kg/day for 2 months vs control): increased levels of serum BHB | Serum BHB levels at T4 ([2]; biopsy date (Day 56 or 57), MCT vs control, p=0.012): significantly higher | Serum BHB levels at T3 ([2]; day 28 of treatment, MCT vs control, p=0.041): significantly higher | State III respiration (brain mitochondria; parietal and frontal cortices vs control, group effect p=0.008): more oxygen consumption per minute than the control group | State IV respiration (brain mitochondria; parietal and frontal cortices vs control, marginally significant p=0.067): slightly more oxygen consumption per minute than the control group | Uncoupling Protein (UCP) activity (brain mitochondria; parietal and frontal cortices vs control, marginally significant p=0.086): consumed more oxygen per minute than the control animals | improvement of mitochondrial function by brain region (brain mitochondria; parietal cortex vs frontal cortex): more effective at improving mitochondrial function in the parietal cortex than the frontal cortex | State II respiration (brain mitochondria; parietal cortex, oxygen consumption per minute per mg of tissue vs control, p=0.010): significantly less oxygen consumption | respiratory control ratio (RCR), coupling of respiration with ATP production (brain mitochondria): better coupling of respiration with ATP formation | respiratory control ratio (RCR), coupling of respiration with ATP production (brain mitochondria; listed as MCT): better coupled to ATP production | Complex I-driven respiration (maximum electron transport capacity) (brain mitochondria; vs control, group effect p=0.002): larger maximum electron transport activity than the control group | Complex II-driven respiration (brain mitochondria; vs control, region x group interaction p=0.047, listed as MCT): consumed more oxygen per minute than the control in the parietal cortex; also recorded: no difference | Lipid oxidation, effect of group ([3]; frontal and parietal, mitochondrial, P1 and cytosolic fractions): no additional significant or marginally significant effects | signs of oxidative damage ([3]; peroxynitrite (protein oxidation), lipid oxidation and 3-nitrotyrosine): decreased signs of oxidative damage; also recorded: decrease oxidative damage | motor performance on rotarod (MPTP treated mice; 0.5 g/kg MCTs oral gavage 2 to 4 hours before MPTP): lessen the decline in motor performance | signs of oxidative damage (MPTP treated mice; brain tissue seven days after last MPTP injection): fewer signs of oxidative damage | mitochondrial efficiency (MPTP treated mice; isolated mitochondria): improved mitochondrial efficiency

CCCCCCCCCCCCCC(=O)O [Myristic]
Solubility ([1]; water at 20° C.): 0.02 grams of acid per liter

CCCCCCCCCCCCCCCC(=O)O [Palmitic, palmitic acid]
amount that will dissolve in water [1]: 0.007 grams
